Results taken from patent US9504729B2, “Antiangiogenic small molecules and methods of use” (The United States of America, as represented by the …, priority 2009, dated 2016).

System: angiogenesis genes in dermal microvascular endothelial cells
Experiment: Real time RT-PCR of angiogenesis gene expression during endothelial tube formation
Format: cell-based
Conditions: 1 μM SM, 24 hours

Structure (SMILES): COc1cc2cc(c1Cl)N(C)C(=O)CC(OC(=O)C(C)C)C1(C)OC1C(C)C1CC(O)(NC(=O)O1)C(OC)/C=C/C=C(\C)C2 (centres unmarked) [compound 292222]
- Log2 fold-change of gene expression: 1839: −0.1
- Log2 fold-change of gene expression: 4247: 0.5
- Log2 fold-change of gene expression: 5569: 1.5
- Log2 fold-change of gene expression: 8131: 0.1
- Log2 fold-change of gene expression: 9569: 0.2
- Log2 fold-change of gene expression: 10988: 1.0
- Log2 fold-change of gene expression: 23001: −0.8
- Log2 fold-change of gene expression: 55332: 2.4
- Log2 fold-change of gene expression: 57722: 0.0
- Log2 fold-change of gene expression: 58488: 1.0
- Log2 fold-change of gene expression: 90780: 0.1
- Log2 fold-change of gene expression: 134265: −1.3
- Log2 fold-change of gene expression: AKT1: 0.7
- Log2 fold-change of gene expression: ANGPT1: 0.9
- Log2 fold-change of gene expression: ANGPT2: −1.3
- Log2 fold-change of gene expression: ANGPTL3: 0.6
- Log2 fold-change of gene expression: ANGPTL4: 1.3
- Log2 fold-change of gene expression: ANPEP: −0.6
- Log2 fold-change of gene expression: ANTXR1: −0.2
- Log2 fold-change of gene expression: APOE: −2.2
- Log2 fold-change of gene expression: ARHGEF1: −0.9
- Log2 fold-change of gene expression: Acvrl1: 0.0
- Log2 fold-change of gene expression: Adcy4: −0.4
- Log2 fold-change of gene expression: BAL1: 0.2
- Log2 fold-change of gene expression: BMP1: 0.4
- Log2 fold-change of gene expression: C1orf54: −0.1
- Log2 fold-change of gene expression: CALD1: 0.6
- Log2 fold-change of gene expression: CCL2: 0.9
- Log2 fold-change of gene expression: CCL11: 0.2
- Log2 fold-change of gene expression: CD248: 1.3
- Log2 fold-change of gene expression: CDH5: −0.1
- Log2 fold-change of gene expression: CENTD3: −0.5
- Log2 fold-change of gene expression: CLIC1: 6.6
- Log2 fold-change of gene expression: COL4A3: 2.0
- Log2 fold-change of gene expression: COL18A1: 1.2
- Log2 fold-change of gene expression: COMT: −0.2
- Log2 fold-change of gene expression: CST4: 0.8
- Log2 fold-change of gene expression: CTTNBP2NL: 0.2
- Log2 fold-change of gene expression: CXCL3: 5.0
- Log2 fold-change of gene expression: CXCL5: 3.4
- Log2 fold-change of gene expression: CXCL6: 0.4
- Log2 fold-change of gene expression: CXCL9: 0.4
- Log2 fold-change of gene expression: CXCL10: 0.8
- Log2 fold-change of gene expression: Calcr1: −1.1
- Log2 fold-change of gene expression: Caskin2: −6.7
- Log2 fold-change of gene expression: Ccbp2: 0.4
- Log2 fold-change of gene expression: Cldn5: −0.1
- Log2 fold-change of gene expression: DGKG: 2.9
- Log2 fold-change of gene expression: DKK3: −1.1
- Log2 fold-change of gene expression: DLL4: −2.2
- Log2 fold-change of gene expression: DUT: −0.4
- Log2 fold-change of gene expression: EFNA1: 0.9
- Log2 fold-change of gene expression: EFNA3: 0.1
- Log2 fold-change of gene expression: EFNB2: −2.2
- Log2 fold-change of gene expression: EGF: 2.8
- Log2 fold-change of gene expression: ENG: −0.9
- Log2 fold-change of gene expression: EPHB4: −0.5
- Log2 fold-change of gene expression: EREG: 5.0
- Log2 fold-change of gene expression: ESAM1: −1.1
- Log2 fold-change of gene expression: EXTL3: 0.8
- Log2 fold-change of gene expression: Egf17: −1.2
- Log2 fold-change of gene expression: Ehd4: −1.4
- Log2 fold-change of gene expression: Entpd1: −5.5
- Log2 fold-change of gene expression: Epas1: −1.7
- Log2 fold-change of gene expression: EphB1: 0.9
- Log2 fold-change of gene expression: Erg: 3.7
- Log2 fold-change of gene expression: FGF1: −1.4
- Log2 fold-change of gene expression: FGF2: −0.6
- Log2 fold-change of gene expression: FGFR3: 0.8
- Log2 fold-change of gene expression: FIGF: 0.1
- Log2 fold-change of gene expression: FLT1: −0.2
- Log2 fold-change of gene expression: Fgd5: −0.8
- Log2 fold-change of gene expression: GPCR124: −1.9
- Log2 fold-change of gene expression: GRRP1: 0.1
- Log2 fold-change of gene expression: Grp116: −4.4
- Log2 fold-change of gene expression: HAND2: 1.0
- Log2 fold-change of gene expression: HGF: 1.3
- Log2 fold-change of gene expression: HIF1A: −0.7
- Log2 fold-change of gene expression: HPSE: 1.6
- Log2 fold-change of gene expression: Hspa12b: −2.2
- Log2 fold-change of gene expression: ID1: 0.0
- Log2 fold-change of gene expression: ID3: −0.2
- Log2 fold-change of gene expression: IFNA1: 0.8
- Log2 fold-change of gene expression: IFNB1: 1.1
- Log2 fold-change of gene expression: IFNG: 3.1
- Log2 fold-change of gene expression: IGF1: 6.0
- Log2 fold-change of gene expression: IL1B: 4.3
- Log2 fold-change of gene expression: IL6: 3.0
- Log2 fold-change of gene expression: IL8: 13.9
- Log2 fold-change of gene expression: ITGAV: 1.2
- Log2 fold-change of gene expression: ITGB3: 2.5
- Log2 fold-change of gene expression: Icam1: 0.5
- Log2 fold-change of gene expression: Icam2: 0.1
- Log2 fold-change of gene expression: JAG1: 1.6
- Log2 fold-change of gene expression: KDR: −1.2
- Log2 fold-change of gene expression: Kifc1: 0.5
- Log2 fold-change of gene expression: LAMAS5: −0.4
- Log2 fold-change of gene expression: LECT1: 1.4
- Log2 fold-change of gene expression: LEP: −0.6
- Log2 fold-change of gene expression: Lasts2: 0.1
- Log2 fold-change of gene expression: Lrrk1: −0.1
- Log2 fold-change of gene expression: MDK: 0.8
- Log2 fold-change of gene expression: MMP2: 2.8
- Log2 fold-change of gene expression: MMP9: 3.3
- Log2 fold-change of gene expression: MMP11: 0.1
- Log2 fold-change of gene expression: MRC2: 0.6
- Log2 fold-change of gene expression: Mmm2: −1.0
- Log2 fold-change of gene expression: Myo1b: −1.5
- Log2 fold-change of gene expression: NID1: −2.5
- Log2 fold-change of gene expression: NM023516: 0.4
- Log2 fold-change of gene expression: NRP1: 0.8
- Log2 fold-change of gene expression: NRP2: 1.0
- Log2 fold-change of gene expression: Notch4: −0.4
- Log2 fold-change of gene expression: Npr3: 0.9
- Log2 fold-change of gene expression: PALD: 1.8
- Log2 fold-change of gene expression: PDCD2: 0.2
- Log2 fold-change of gene expression: PDGFA: 1.6
- Log2 fold-change of gene expression: PECAM1: −0.7
- Log2 fold-change of gene expression: PGF: 0.6
- Log2 fold-change of gene expression: PLAU: 2.7
- Log2 fold-change of gene expression: PLG: −0.7
- Log2 fold-change of gene expression: PNMT: 0.1
- Log2 fold-change of gene expression: PROK2: 1.9
- Log2 fold-change of gene expression: PTGS1: 2.0
- Log2 fold-change of gene expression: PTPRCAP: 0.1
- Log2 fold-change of gene expression: Pltp: 0.4
- Log2 fold-change of gene expression: Ptprb: 0.3
- Log2 fold-change of gene expression: Ptprm: −0.1
- Log2 fold-change of gene expression: RAMP2: −0.6
- Log2 fold-change of gene expression: RASD2: 0.3
- Log2 fold-change of gene expression: Rasip1: −0.3
- Log2 fold-change of gene expression: S1PR1: −0.3
- Log2 fold-change of gene expression: SERPINF1: 2.3
- Log2 fold-change of gene expression: SPHK1: 2.0
- Log2 fold-change of gene expression: STAB1: 0.2
- Log2 fold-change of gene expression: Sdc4: 0.7
- Log2 fold-change of gene expression: Sdpr: −4.9
- Log2 fold-change of gene expression: Slc43a3: 1.0
- Log2 fold-change of gene expression: Slco2a1: −5.3
- Log2 fold-change of gene expression: TEK: 2.0
- Log2 fold-change of gene expression: TGFA: −3.4
- Log2 fold-change of gene expression: TGFB1: 1.1
- Log2 fold-change of gene expression: TGFB2: 1.9
- Log2 fold-change of gene expression: TGFBR1: 1.8
- Log2 fold-change of gene expression: THBS1: 1.1
- Log2 fold-change of gene expression: THBS2: 1.9
- Log2 fold-change of gene expression: THY1: −8.0
- Log2 fold-change of gene expression: TIMP1: 1.6
- Log2 fold-change of gene expression: TIMP2: 1.1
- Log2 fold-change of gene expression: TIMP3: −0.4
- Log2 fold-change of gene expression: TNF: 1.0
- Log2 fold-change of gene expression: TNS1: −0.3
- Log2 fold-change of gene expression: TNS3: 0.5
- Log2 fold-change of gene expression: TRA2B: −0.6
- Log2 fold-change of gene expression: TYMP: −0.1
- Log2 fold-change of gene expression: VEGFA: 3.2
- Log2 fold-change of gene expression: VEGFC: 2.7
- Log2 fold-change of gene expression: VGLL4: −0.8
- Log2 fold-change of gene expression: Vwf: −3.3
- Log2 fold-change of gene expression: copa: 0.2
- Log2 fold-change of gene expression: itbp4: 0.1
- Log2 fold-change of gene expression: ralb: −0.4
- Log2 fold-change of gene expression: stard9: 0.8
- Log2 fold-change of gene expression: B2M (1st listing (r49)): −0.4
- Log2 fold-change of gene expression: HPRT1 (1st listing (r50)): 0.3
- Log2 fold-change of gene expression: RPL13A (1st listing (r51)): 0.7
- Log2 fold-change of gene expression: GADPH (1st listing (r52)): −0.1
- Log2 fold-change of gene expression: ACTB (1st listing (r53)): −0.8
- Log2 fold-change of gene expression: PLXDC1 (1st listing (r74)): −0.1
- Log2 fold-change of gene expression: TNFAIP2 (1st listing (r91)): 0.6
- Log2 fold-change of gene expression: Robo4 (1st listing (r95)): 1.1
- Log2 fold-change of gene expression: 151516 (1st listing (r134)): 0.7
- Log2 fold-change of gene expression: TNFAIP2 (2nd listing (r92)): 0.2
- Log2 fold-change of gene expression: B2M (2nd listing (r97)): 1.3
- Log2 fold-change of gene expression: HPRT1 (2nd listing (r98)): 1.4
- Log2 fold-change of gene expression: RPL13A (2nd listing (r99)): 1.7
- Log2 fold-change of gene expression: GADPH (2nd listing (r100)): 1.4
- Log2 fold-change of gene expression: ACTB (2nd listing (r101)): −6.3
- Log2 fold-change of gene expression: PLXDC1 (2nd listing (r104)): 0.3
- Log2 fold-change of gene expression: 151516 (2nd listing (r139)): 0.7
- Log2 fold-change of gene expression: Robo4 (2nd listing (r188)): 0.0
- Log2 fold-change of gene expression: B2M (3rd listing (r145)): 0.0
- Log2 fold-change of gene expression: HPRT1 (3rd listing (r146)): 0.2
- Log2 fold-change of gene expression: RPL13A (3rd listing (r147)): 0.3
- Log2 fold-change of gene expression: GADPH (3rd listing (r148)): −0.1
- Log2 fold-change of gene expression: ACTB (3rd listing (r149)): −0.9
- Log2 fold-change of gene expression: B2M (4th listing (r193)): 0.6
- Log2 fold-change of gene expression: HPRT1 (4th listing (r194)): 0.4
- Log2 fold-change of gene expression: RPL13A (4th listing (r195)): 1.2
- Log2 fold-change of gene expression: GADPH (4th listing (r196)): −0.2
- Log2 fold-change of gene expression: ACTB (4th listing (r197)): −0.6
